The text below walks through data of ChEMBL document CHEMBL5465560, “Selectivity Literature for EUbOPEN Chemogenomic Library” (2024).

Where only a bound is given, the exact number is not on record here.

The target of experiment [1] is T1, Casein kinase I isoform alpha-like (Homo sapiens) (UniProt Q8N752).
T1 sequence (whole entry): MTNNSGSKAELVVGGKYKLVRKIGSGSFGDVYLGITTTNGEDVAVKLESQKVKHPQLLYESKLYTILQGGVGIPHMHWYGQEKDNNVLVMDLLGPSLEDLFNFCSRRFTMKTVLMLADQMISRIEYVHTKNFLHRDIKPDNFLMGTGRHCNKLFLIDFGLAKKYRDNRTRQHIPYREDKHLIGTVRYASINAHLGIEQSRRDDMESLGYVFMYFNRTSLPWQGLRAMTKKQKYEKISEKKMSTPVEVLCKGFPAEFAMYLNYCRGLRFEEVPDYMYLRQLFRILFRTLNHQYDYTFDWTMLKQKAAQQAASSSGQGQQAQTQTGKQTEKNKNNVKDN
The following applies: at 10 µM.

The target in experiment [2] is RAC-alpha serine/threonine-protein kinase (Homo sapiens, UniProt P31749). Put plainly: Selectivity interaction (Millipore kinase profiler) EUB0000124b AKT1. The note with it: at 10 µM.
The target in experiment [3] is Cyclin-dependent kinase 18 (Homo sapiens) (UniProt Q07002). Put plainly: Selectivity interaction (KinomeScan (DiscoverX)) EUB0000655a CDK18. The note with it: at 10 µM.
Experiment [4] deals with Mitogen-activated protein kinase kinase kinase kinase 4 (Homo sapiens, UniProt O95819). Put plainly: Selectivity interaction (Kinase screening (Nanosyn)) EUB0000604a MAP4K4.
In experiment [5] the target is Histone-lysine N-methyltransferase KMT5C (Homo sapiens) (UniProt Q86Y97). Briefly: Selectivity interaction (Methyltransferase screen (radiometric assays, panel of 8 PRMTs, 21 protein lysine methyltransferases, 3 DNA methyltransferases, and one RNA methyltransferase)) EUB0000271b SUV420H2.
Experiment [6] concerns the target Serine/threonine-protein kinase 25 (Homo sapiens) (UniProt O00506). Put plainly: Selectivity interaction (KinomeScan (DiscoverX)) EUB0000666a STK25. The note with it: at 10 µM.
The target of experiment [7] is T2, Ephrin type-B receptor 2 (Homo sapiens) (UniProt P29323).
T2 sequence (whole entry): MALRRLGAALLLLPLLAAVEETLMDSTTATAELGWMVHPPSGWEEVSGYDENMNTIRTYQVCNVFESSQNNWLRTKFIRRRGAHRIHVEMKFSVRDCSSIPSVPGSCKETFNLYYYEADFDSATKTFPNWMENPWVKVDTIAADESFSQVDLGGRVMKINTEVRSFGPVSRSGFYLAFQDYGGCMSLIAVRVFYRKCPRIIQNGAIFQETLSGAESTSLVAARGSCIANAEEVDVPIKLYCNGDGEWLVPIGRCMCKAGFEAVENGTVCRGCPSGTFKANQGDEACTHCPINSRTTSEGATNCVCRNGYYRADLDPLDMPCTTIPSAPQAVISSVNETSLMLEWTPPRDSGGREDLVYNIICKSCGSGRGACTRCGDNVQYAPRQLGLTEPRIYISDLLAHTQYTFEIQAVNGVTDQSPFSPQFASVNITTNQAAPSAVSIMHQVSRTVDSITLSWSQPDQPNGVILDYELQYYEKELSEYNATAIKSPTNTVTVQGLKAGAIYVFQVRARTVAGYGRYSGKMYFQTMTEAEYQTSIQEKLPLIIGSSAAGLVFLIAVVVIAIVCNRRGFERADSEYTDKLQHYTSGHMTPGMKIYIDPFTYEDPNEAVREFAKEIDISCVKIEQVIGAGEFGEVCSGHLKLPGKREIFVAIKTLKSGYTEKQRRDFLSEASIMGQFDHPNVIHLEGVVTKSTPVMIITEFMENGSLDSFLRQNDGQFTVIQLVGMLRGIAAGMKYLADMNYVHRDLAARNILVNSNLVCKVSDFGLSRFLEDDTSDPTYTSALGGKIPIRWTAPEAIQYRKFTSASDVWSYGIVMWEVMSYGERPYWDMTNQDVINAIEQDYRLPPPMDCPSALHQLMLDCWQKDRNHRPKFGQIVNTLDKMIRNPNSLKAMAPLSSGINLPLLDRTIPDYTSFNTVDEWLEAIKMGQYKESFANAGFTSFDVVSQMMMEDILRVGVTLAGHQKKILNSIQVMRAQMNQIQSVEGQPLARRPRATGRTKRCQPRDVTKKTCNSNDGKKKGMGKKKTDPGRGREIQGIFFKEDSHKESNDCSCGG
Put plainly: Selectivity interaction (KinomeScan (DiscoverX)) EUB0000666a EPHB2. The note with it: at 10 µM.

Experiment [8] addresses Vascular endothelial growth factor receptor 1 (Homo sapiens) (UniProt P17948). Put plainly: Selectivity interaction (KinomeScan (DiscoverX)) EUB0000666a FLT1. The following applies: at 10 µM.
The target of experiment [9] is Protein arginine N-methyltransferase 1 (Homo sapiens, UniProt Q99873). The following applies: at 1 µM.
The test system of experiment [10] is Epidermal growth factor receptor (Homo sapiens), P00533 [L858R,T790M]. Put plainly: (§1) Selectivity interaction (KinomeScan (DiscoverX)) EUB0001619a EGFR. The following applies: at 1 µM.
Experiment [11] deals with Epidermal growth factor receptor (Homo sapiens), P00533 [UNDEFINED MUTATION]. The description is as §1. The following applies: at 1 µM.
Experiment [12] deals with Epidermal growth factor receptor (Homo sapiens), P00533 [G719S]. The description is as §1. The following applies: at 1 µM.
In experiment [13] the target is Epidermal growth factor receptor (Homo sapiens, UniProt P00533). The experiment is described as §1. The following applies: at 1 µM.
The test system of experiment [14] is Epidermal growth factor receptor (Homo sapiens), P00533 [G719C]. The experiment is described as §1. The following applies: at 1 µM.
Experiment [15] concerns Epidermal growth factor receptor (Homo sapiens), P00533 [L861Q]. The experiment is described as §1. The note with it: at 1 µM.
In experiment [16] the test system is Epidermal growth factor receptor (Homo sapiens), P00533 [T790M]. Described as §1. The following applies: at 1 µM.
In experiment [17] the test system is Epidermal growth factor receptor (Homo sapiens), P00533 [L858R]. The experiment is described as §1. The note with it: at 1 µM.
The target of experiment [18] is T3, Phosphatidylinositol 5-phosphate 4-kinase type-2 beta (Homo sapiens) (UniProt P78356).
T3 sequence (whole entry): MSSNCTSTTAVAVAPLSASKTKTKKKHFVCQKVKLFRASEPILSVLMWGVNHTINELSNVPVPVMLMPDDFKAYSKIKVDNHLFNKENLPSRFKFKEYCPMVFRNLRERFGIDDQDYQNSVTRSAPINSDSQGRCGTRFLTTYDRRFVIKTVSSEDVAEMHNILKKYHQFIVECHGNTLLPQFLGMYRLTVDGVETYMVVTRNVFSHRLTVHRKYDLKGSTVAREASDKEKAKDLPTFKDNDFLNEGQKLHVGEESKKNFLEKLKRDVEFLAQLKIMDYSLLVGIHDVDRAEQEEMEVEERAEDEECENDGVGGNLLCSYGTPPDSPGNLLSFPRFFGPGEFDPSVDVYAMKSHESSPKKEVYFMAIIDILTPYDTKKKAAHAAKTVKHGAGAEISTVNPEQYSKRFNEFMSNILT
Briefly: Selectivity interaction (KinomeScan (DiscoverX)) EUB0000618a PIP4K2B. The following applies: at 10 µM.

Experiment [19] concerns the target Interleukin-1 receptor-associated kinase 1 (Homo sapiens) (UniProt P51617). Briefly: Selectivity interaction (KinomeScan (DiscoverX)) EUB0000618a IRAK1. The following applies: at 10 µM.

Sequence of Histone-lysine N-methyltransferase KMT5C (Homo sapiens) (Q86Y97 whole entry, looked up): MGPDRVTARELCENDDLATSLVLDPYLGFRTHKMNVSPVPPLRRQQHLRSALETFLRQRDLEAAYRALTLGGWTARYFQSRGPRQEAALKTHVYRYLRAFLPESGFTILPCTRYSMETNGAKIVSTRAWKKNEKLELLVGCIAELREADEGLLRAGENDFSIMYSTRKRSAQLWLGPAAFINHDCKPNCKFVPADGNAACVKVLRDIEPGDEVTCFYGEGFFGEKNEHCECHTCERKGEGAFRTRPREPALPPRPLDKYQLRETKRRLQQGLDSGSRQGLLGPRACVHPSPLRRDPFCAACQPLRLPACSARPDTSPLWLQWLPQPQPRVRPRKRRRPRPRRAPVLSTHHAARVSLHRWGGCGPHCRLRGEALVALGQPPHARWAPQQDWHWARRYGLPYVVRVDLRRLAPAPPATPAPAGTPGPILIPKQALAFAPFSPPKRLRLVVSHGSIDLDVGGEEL
Sequence of Mitogen-activated protein kinase kinase kinase kinase 4 (O95819 2-1239 limits assumed): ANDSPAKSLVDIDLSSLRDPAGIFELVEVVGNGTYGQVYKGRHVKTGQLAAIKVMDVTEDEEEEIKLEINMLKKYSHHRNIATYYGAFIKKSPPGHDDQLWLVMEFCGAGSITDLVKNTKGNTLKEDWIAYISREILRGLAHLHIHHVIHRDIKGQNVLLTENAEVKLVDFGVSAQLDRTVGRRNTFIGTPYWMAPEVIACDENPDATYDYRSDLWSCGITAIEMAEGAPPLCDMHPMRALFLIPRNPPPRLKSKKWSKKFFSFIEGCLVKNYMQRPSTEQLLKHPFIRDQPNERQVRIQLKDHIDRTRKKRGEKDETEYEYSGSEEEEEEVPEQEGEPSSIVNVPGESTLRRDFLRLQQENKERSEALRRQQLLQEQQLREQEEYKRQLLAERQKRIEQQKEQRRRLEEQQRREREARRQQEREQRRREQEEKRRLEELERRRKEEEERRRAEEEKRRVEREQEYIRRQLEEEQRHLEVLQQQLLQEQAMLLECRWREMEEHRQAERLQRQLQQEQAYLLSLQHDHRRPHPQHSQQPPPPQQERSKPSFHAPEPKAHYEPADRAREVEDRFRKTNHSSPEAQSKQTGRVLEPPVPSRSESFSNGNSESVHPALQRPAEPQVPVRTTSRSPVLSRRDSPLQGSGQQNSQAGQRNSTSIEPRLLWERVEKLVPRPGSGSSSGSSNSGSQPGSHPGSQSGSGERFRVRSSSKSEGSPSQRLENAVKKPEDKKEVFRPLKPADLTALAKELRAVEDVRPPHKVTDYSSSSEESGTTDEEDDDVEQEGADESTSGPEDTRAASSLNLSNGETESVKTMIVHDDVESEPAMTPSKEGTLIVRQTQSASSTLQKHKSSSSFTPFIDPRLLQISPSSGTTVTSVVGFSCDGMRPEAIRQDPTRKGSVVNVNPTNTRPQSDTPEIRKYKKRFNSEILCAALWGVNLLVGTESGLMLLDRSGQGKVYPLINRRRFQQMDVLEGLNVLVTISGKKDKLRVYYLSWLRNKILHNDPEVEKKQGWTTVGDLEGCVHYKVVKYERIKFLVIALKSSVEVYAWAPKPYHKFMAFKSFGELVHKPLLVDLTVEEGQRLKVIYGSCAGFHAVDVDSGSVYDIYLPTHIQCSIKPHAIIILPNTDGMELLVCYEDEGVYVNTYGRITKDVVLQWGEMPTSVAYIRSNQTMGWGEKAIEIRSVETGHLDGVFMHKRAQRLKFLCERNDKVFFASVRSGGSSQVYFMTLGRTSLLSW
Sequence of Protein arginine N-methyltransferase 1 (Q99873 whole entry, looked up): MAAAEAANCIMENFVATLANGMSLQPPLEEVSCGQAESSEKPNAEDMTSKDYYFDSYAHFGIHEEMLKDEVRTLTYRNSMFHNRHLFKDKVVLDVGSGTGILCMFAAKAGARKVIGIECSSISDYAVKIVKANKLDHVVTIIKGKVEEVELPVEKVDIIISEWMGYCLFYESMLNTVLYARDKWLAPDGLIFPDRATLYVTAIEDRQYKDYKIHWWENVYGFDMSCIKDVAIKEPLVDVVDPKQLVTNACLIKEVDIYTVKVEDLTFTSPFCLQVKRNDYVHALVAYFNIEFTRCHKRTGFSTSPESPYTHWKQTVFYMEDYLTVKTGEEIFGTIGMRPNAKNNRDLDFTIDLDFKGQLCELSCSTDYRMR
Sequence of Serine/threonine-protein kinase 25 (Homo sapiens) (O00506 whole entry, looked up): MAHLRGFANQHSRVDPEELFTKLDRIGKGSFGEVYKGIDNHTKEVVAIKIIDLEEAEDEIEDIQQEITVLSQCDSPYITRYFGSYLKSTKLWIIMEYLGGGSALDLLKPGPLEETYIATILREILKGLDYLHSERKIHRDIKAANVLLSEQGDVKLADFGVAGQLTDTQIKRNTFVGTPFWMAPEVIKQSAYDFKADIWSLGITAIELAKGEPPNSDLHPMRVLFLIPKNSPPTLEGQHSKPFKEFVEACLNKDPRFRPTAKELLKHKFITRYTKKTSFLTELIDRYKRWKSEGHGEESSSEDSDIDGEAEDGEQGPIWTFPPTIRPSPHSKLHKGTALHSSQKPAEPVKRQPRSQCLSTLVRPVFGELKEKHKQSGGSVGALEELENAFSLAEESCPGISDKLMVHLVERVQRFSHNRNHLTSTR
Sequence of Epidermal growth factor receptor (Homo sapiens), P00533 [G719C] (P00533 whole entry G719C): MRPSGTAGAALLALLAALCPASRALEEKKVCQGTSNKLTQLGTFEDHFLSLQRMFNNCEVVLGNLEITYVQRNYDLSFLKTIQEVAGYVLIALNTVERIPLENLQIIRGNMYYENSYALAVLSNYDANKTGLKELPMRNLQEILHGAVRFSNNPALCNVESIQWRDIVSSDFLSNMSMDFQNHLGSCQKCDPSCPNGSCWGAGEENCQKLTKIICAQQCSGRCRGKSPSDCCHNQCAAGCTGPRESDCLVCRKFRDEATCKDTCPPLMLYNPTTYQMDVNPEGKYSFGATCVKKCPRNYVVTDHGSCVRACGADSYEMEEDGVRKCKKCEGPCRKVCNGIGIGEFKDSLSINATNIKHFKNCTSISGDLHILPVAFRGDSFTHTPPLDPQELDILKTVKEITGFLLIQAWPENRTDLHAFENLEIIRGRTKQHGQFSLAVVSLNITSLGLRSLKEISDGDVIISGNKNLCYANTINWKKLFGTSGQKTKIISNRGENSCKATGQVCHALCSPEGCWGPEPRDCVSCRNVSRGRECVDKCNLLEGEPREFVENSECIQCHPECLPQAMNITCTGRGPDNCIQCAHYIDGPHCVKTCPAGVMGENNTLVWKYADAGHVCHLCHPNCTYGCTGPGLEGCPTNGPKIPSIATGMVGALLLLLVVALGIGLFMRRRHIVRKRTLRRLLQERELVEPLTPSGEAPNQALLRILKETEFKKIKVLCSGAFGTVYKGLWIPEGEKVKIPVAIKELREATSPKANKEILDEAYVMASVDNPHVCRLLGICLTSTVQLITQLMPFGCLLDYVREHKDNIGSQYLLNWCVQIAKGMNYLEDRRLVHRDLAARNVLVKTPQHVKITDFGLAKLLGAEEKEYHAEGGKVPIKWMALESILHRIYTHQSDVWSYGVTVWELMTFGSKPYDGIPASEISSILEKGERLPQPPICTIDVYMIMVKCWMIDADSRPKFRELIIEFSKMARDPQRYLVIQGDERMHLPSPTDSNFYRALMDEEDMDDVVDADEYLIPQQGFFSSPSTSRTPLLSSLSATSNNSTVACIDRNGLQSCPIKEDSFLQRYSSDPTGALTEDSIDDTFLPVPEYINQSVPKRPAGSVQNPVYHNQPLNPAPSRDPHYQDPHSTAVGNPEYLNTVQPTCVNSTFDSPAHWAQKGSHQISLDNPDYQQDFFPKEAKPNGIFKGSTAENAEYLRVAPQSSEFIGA
Sequence of Epidermal growth factor receptor (Homo sapiens), P00533 [G719S] (P00533 whole entry G719S): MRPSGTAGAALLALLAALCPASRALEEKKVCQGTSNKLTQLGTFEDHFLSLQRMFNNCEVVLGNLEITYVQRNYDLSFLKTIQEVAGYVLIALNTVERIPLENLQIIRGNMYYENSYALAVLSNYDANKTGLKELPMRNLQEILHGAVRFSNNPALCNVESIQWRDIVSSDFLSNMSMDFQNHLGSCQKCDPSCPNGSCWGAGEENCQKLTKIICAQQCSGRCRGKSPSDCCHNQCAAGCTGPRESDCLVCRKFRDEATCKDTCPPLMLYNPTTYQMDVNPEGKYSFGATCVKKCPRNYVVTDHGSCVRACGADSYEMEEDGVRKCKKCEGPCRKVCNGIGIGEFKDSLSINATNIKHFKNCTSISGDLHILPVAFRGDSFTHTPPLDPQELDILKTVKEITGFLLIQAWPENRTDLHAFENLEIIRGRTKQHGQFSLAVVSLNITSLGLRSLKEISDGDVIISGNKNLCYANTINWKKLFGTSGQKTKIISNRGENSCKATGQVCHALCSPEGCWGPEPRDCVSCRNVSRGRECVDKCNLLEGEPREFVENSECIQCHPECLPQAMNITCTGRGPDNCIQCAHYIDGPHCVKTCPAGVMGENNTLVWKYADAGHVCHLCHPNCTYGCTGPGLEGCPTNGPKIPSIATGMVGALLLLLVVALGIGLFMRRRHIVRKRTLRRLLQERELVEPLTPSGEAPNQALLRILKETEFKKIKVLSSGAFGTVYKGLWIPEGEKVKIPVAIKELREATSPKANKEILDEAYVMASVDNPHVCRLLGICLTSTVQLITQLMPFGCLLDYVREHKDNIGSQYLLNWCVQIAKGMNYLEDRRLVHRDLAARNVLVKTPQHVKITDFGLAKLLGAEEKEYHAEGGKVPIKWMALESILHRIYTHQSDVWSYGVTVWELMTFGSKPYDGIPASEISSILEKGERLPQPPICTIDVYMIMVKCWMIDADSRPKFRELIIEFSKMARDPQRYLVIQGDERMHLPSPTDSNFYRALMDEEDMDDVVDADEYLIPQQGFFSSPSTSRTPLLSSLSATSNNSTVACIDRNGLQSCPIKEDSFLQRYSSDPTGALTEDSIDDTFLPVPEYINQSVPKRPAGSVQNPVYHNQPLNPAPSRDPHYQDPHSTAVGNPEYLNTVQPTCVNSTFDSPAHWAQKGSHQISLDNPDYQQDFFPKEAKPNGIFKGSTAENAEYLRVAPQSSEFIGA

Regarding `CCN(CC)CCCCNc1ncc2cc(-c3cc(OC)cc(OC)c3)c(NC(=O)NC(C)(C)C)nc2n1`, the % of control in experiment [1] stood at 100%.

In the case of `CC(=O)Nc1cccc(-n2c(=O)n(C3CC3)c(=O)c3c(Nc4ccc(I)cc4F)n(C)c(=O)c(C)c32)c1`, in [2], the % of control stood at 107%.

Regarding `CN(C)CCOc1ccc(-c2nc(-c3ccncc3)c(-c3ccc4c(c3)CC/C4=N\O)[nH]2)cc1`, the % of control in experiment [3] was determined as 100%.

Consider `Cc1cnc(Nc2ccc(F)cc2Cl)nc1-c1c[nH]c(C(=O)N[C@H](CO)c2cccc(Cl)c2)c1`, for which, in experiment [4], the % of inhibition worked out at 18%.

For the compound `Cc1cc(C)cc([C@@H]2c3cc(C)ccc3NC(=O)CN2C(=O)c2ccc(Br)s2)c1`, the % of activity in [5] (at 1 µM) and in experiment [5] (at 10 µM) was 102% throughout.

Turning to `O=C(NOC[C@H](O)CO)c1ccc(F)c(F)c1Nc1ccc(I)cc1F`, the results for the % of control in [6], in experiment [7] and in experiment [8] were 91%, 73% and 94%, respectively.

As to `CNCCN1CCC(c2cc(CN(C)C(=O)c3cccc(Oc4ccccc4)c3)ccn2)CC1`, the % activity in experiment [9] was over 90%.

On to `N#Cc1cccc(-c2c[nH]c3ncnc(N4CCOCC4)c23)c1`, for which the % of control is 100% in [10]; 77% in experiment [11]; 100% in experiment [12]; 100% in experiment [13]; 84% in [14]; 86% in [15]. For the same compound, the % of control in experiment [16] came out at 81%; in experiment [17], 78%.

`O[C@H]1CC[C@H](Nc2ncc3nc(Nc4c(F)cc(F)cc4F)n([C@H]4CCOC4)c3n2)CC1`: the % of control in experiment [18] turned out to be 98%; in [19], 38%.
